Source: ChEMBL document CHEMBL1201862, “PubChem BioAssay data set” (2004)
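Tested at 5 concentrations; 48 h exposure; 96-well plates; endpoints linearly interpolated, else capped at highest concentration. GI50 is the concentration that inhibits growth by half.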 The source made the active and inactive calls. Cut-off read from the data, not from the text of the source: active = GI50 up to about 1.1 µM and inactive = higher.

How the values were obtained:
Experiment in all cases: NCI anticancer screen, dose series, 48 h
OVCAR-3 = test system: OVCAR-3
LXFL 529 = test system: LXFL 529
TK-10 = test system: TK-10
A498 = test system: A498
ACHN = test system: ACHN
K562 = test system: K562
SF-268 = test system: SF-268
HCC 2998 = test system: HCC 2998
NCI-H23 = test system: NCI-H23
NCI-H226 = test system: NCI-H226
HL-60 = test system: HL-60
KM12 = test system: KM12
DMS-273 = test system: DMS-273
NCI-H460 = test system: NCI-H460
SK-MEL-5 = test system: SK-MEL-5
Malme-3M = test system: Malme-3M
DLD-1 = test system: DLD-1
SNB-75 = test system: SNB-75

Measured: GI50

CCCO/N=[N+](\[O-])N(CC)CC
inactive: OVCAR-3 > 100 µM | LXFL 529 > 100 µM | TK-10 > 100 µM | A498 > 100 µM | ACHN > 100 µM | K562 > 100 µM | SF-268 > 100 µM | HCC 2998 > 100 µM | NCI-H23 > 100 µM | NCI-H226 > 100 µM | HL-60 > 100 µM | KM12 > 100 µM | DMS-273 > 100 µM | NCI-H460 > 100 µM | SK-MEL-5 > 100 µM

COc1cc2c3c(c1OC)C1(C=CC(=O)C=C1)CC3N(C(=O)OC(C)(C)C(Cl)(Cl)Cl)CC2 (configuration not stated)
inactive: Malme-3M 14.2 µM | OVCAR-3 7.66 µM | LXFL 529 8.85 µM | TK-10 43.2 µM | A498 16.7 µM | K562 4.68 µM | DLD-1 8.45 µM | SF-268 13.1 µM | NCI-H23 16.4 µM | NCI-H226 15.9 µM | HL-60 1.95 µM | KM12 9.2 µM | SNB-75 15.1 µM | DMS-273 9.38 µM | NCI-H460 14.5 µM | SK-MEL-5 6.87 µM

O=C(O)C(CS)NCc1c2ccccc2nc2ccccc12 (configuration not stated)
inactive: Malme-3M 38.2 µM | OVCAR-3 38.9 µM | LXFL 529 39.7 µM | TK-10 78.2 µM | ACHN 42.3 µM | K562 26.1 µM | DLD-1 24.4 µM | SF-268 40.7 µM | HCC 2998 40.6 µM | NCI-H23 37.8 µM | NCI-H226 > 100 µM | HL-60 22.3 µM | KM12 26.9 µM | SNB-75 65.8 µM | DMS-273 27 µM | NCI-H460 42.5 µM

CC12CCC3=C(CSC4=C3CSc3ccccc34)C1=CCCC2=O (configuration not stated)
inactive: Malme-3M 31 µM | OVCAR-3 13.5 µM | LXFL 529 37.1 µM | TK-10 38 µM | ACHN 69.2 µM | K562 40.8 µM | DLD-1 29.4 µM | SF-268 > 100 µM | HCC 2998 47.4 µM | NCI-H23 > 100 µM | NCI-H226 64.3 µM | HL-60 73.1 µM | KM12 54.2 µM | DMS-273 82.8 µM | NCI-H460 45.2 µM | SK-MEL-5 17.4 µM

[N-]=[N+]=Nc1cc(=O)oc2ccccc12
inactive: Malme-3M > 100 µM | LXFL 529 > 100 µM | TK-10 > 100 µM | ACHN > 100 µM | K562 > 100 µM | DLD-1 > 100 µM | SF-268 > 100 µM | NCI-H23 > 100 µM | NCI-H226 > 100 µM | HL-60 > 100 µM | KM12 > 100 µM | SNB-75 > 100 µM | DMS-273 > 100 µM | NCI-H460 > 100 µM | SK-MEL-5 > 100 µM

O=S(=O)(/C=C/c1ccc(F)cc1)Cc1ccc(CS(=O)(=O)/C=C/c2ccc(F)cc2)cc1
inactive: Malme-3M > 100 µM | OVCAR-3 > 100 µM | LXFL 529 > 100 µM | TK-10 > 100 µM | ACHN > 100 µM | K562 > 100 µM | DLD-1 > 100 µM | SF-268 > 100 µM | HCC 2998 > 100 µM | NCI-H23 > 100 µM | NCI-H226 > 100 µM | HL-60 > 100 µM | KM12 > 100 µM | SNB-75 > 100 µM | DMS-273 > 100 µM | NCI-H460 > 100 µM | SK-MEL-5 > 100 µM

[N-]=[N+]=Nc1c(Br)c(=O)[nH]c(=O)n1COCCO
inactive: Malme-3M > 100 µM | OVCAR-3 > 100 µM | LXFL 529 > 100 µM | TK-10 > 100 µM | ACHN > 100 µM | K562 > 100 µM | DLD-1 > 100 µM | SF-268 > 100 µM | HCC 2998 > 100 µM | NCI-H23 > 100 µM | HL-60 > 100 µM | KM12 > 100 µM | SNB-75 86.1 µM | DMS-273 > 100 µM | NCI-H460 > 100 µM | SK-MEL-5 > 100 µM

O=C(O)c1ccc(NC(=O)C2C(=O)C(=O)N(c3ccc(C(=O)O)cc3)C2=O)cc1 (configuration not stated)
inactive: Malme-3M > 100 µM | OVCAR-3 > 100 µM | TK-10 > 100 µM | A498 > 100 µM | ACHN > 100 µM | K562 > 100 µM | DLD-1 > 100 µM | SF-268 > 100 µM | HCC 2998 > 100 µM | NCI-H23 > 100 µM | NCI-H226 > 100 µM | HL-60 > 100 µM | KM12 > 100 µM | SNB-75 > 100 µM | DMS-273 > 100 µM | NCI-H460 > 100 µM
